From ChEMBL document CHEMBL1909046, “DrugMatrix in vitro pharmacology data” come the findings set out here.

For assay [1], the target named is Kappa-type opioid receptor (Homo sapiens, UniProt P41145). As to the kind of experiment: DRUGMATRIX: Opiate kappa (OP2, KOP) radioligand binding (ligand: [3H] Diprenorphine). The class given is cell membranes, HEK293, Membrane. The following applies: hek293; Not Active = under 50% inhibition at 10 µM.
A short description of assay [2]: DRUGMATRIX: Platelet-Derived Growth Factor (PDGF) radioligand binding (ligand: [125I] PDGF). Type of assay: cell-based. The note with it: nih3t3; Not Active = under 50% inhibition at 10 µM.
Assay [3] concerns the target T1, Nitric oxide synthase, inducible (Mus musculus, UniProt P29477).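 Also: inhibition of iNOS enzyme activity measured with L-arginine as substrate; in other assays of this panel Not Active means under 50% inhibition at 10 µM.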
T1 sequence (P29477 whole entry): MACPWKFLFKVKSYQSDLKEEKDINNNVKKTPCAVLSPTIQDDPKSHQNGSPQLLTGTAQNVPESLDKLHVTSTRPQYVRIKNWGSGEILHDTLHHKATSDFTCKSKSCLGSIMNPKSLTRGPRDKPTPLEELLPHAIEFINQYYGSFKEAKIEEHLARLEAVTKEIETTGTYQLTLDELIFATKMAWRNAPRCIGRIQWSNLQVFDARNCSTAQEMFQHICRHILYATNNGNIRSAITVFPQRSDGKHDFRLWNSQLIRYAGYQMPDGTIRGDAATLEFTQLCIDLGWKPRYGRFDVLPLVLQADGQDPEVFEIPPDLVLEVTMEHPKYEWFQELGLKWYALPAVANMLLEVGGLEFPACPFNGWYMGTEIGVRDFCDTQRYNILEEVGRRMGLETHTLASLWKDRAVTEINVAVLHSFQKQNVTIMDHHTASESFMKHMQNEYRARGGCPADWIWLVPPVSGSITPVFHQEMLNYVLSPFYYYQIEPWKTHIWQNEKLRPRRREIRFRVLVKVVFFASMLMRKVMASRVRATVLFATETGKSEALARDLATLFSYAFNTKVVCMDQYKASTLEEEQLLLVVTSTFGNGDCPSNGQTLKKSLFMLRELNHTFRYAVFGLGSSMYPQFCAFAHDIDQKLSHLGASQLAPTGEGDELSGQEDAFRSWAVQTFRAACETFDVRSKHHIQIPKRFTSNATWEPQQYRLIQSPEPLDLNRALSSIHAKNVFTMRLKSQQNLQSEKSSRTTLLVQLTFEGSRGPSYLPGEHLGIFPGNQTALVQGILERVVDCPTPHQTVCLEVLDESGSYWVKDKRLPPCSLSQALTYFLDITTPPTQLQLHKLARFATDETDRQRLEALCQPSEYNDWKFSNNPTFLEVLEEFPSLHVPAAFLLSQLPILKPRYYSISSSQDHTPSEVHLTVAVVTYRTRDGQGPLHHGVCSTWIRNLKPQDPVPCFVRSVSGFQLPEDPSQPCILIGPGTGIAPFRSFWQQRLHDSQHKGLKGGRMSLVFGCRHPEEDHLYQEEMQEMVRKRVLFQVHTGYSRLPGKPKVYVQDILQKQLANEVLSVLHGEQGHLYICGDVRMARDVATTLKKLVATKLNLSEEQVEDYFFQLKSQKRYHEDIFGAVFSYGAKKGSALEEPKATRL
More on the design: species or system Escherichia coli.

The target in assay [4] is C-C chemokine receptor type 5 (Homo sapiens, UniProt P51681). Type of assay: cell membranes, Membrane. The following applies: hek293. Also: in other assays of this panel Not Active means under 50% inhibition at 10 µM.
Assay [5] deals with T2, Vasoactive intestinal polypeptide receptor 1 (Homo sapiens, UniProt P32241).
T2 sequence (P32241 whole entry): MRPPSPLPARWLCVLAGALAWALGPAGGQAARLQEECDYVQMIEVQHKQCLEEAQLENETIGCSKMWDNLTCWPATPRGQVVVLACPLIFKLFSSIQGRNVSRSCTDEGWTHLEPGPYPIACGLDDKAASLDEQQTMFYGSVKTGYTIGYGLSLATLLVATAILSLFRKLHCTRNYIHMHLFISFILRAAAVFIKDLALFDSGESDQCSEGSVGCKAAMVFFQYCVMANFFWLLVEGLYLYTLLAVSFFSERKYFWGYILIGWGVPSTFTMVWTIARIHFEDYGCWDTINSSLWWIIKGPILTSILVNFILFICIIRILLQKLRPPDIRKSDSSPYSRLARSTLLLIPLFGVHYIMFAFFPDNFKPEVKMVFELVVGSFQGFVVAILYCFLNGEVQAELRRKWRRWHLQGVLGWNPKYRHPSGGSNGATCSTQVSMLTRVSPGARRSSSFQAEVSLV
Type of assay: cell membranes, Membrane. The note with it: ht-29.

Assay [6] has as its target T3, Alpha-1D adrenergic receptor (Homo sapiens, UniProt P25100). Also: in other assays of this panel Not Active means under 50% inhibition at 10 µM.
T3 sequence (P25100 whole entry): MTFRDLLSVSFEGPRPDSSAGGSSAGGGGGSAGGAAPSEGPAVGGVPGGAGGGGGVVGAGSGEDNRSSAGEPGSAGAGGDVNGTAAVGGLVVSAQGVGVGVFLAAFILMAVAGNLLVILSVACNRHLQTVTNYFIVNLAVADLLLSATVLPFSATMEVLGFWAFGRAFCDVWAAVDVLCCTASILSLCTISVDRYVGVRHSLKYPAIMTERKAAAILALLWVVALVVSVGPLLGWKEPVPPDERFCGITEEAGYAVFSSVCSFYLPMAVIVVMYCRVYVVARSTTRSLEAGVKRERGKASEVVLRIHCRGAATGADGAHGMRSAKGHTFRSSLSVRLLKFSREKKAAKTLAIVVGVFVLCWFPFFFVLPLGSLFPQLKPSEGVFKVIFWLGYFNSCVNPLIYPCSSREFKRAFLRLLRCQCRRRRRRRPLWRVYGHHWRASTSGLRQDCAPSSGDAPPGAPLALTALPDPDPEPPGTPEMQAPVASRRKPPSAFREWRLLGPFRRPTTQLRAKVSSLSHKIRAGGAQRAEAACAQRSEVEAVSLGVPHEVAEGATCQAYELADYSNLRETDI
The class given is cell membranes, HEK293, Membrane.

In assay [7] the target is T4, C-X-C chemokine receptor type 2 (Homo sapiens, UniProt P25025). Also: in other assays of this panel Not Active means under 50% inhibition at 10 µM.
T4 sequence (P25025 whole entry): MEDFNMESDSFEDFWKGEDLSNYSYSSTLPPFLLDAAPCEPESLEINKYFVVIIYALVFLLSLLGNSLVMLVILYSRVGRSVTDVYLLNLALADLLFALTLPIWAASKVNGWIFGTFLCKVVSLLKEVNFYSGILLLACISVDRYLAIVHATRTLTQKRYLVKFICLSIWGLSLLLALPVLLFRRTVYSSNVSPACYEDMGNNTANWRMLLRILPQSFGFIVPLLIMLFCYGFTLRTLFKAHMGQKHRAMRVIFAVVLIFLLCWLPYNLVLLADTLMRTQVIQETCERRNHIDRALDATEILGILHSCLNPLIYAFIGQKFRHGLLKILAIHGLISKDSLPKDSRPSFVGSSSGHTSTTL
Type of assay: cell membranes, Membrane. The following applies: cho-k1.

SMILES strings stand for the structures.

Sequence of C-C chemokine receptor type 5 (P51681 whole entry): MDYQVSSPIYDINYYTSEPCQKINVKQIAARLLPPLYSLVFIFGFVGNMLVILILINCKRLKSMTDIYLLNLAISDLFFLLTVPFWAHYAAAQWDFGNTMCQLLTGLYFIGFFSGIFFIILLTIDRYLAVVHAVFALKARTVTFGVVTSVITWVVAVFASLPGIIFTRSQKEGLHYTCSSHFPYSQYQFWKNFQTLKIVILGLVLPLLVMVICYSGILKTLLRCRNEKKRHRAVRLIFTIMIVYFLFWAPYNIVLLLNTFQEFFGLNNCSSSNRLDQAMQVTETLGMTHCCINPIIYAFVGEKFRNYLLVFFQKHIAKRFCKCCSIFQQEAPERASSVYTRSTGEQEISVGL
Sequence of Kappa-type opioid receptor (P41145 whole entry): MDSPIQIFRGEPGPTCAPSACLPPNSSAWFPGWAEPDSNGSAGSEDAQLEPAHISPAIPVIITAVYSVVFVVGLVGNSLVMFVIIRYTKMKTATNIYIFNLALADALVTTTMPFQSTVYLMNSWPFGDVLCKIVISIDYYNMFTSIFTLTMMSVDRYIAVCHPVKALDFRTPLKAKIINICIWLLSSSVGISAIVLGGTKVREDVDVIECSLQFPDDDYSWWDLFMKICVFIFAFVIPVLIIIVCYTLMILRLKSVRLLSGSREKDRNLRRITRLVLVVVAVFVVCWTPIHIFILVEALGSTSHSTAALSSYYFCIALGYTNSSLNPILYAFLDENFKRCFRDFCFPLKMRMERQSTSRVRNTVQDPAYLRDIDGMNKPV

In general, IC50 refers to the concentration at which inhibition is half-maximal. For orientation: Ki means a measure of affinity in units of concentration, obtained from inhibition or displacement. Regarding `CC(=O)OCC(CCn1cnc2cnc(N)nc21)COC(C)=O` [FAMCICLOVIR], the IC50 result in assay [1], in assay [2], in assay [3], in assay [4], in assay [5] and in assay [6] (hek293) was “Not Active” throughout. Besides, the IC50 entry in assay [7] was “Not Active”. Besides, the Ki result in assay [2] is listed as “Not Active”.

Regarding `O=C(O)Cc1ccc(-c2ccccc2)cc1` [FELBINAC], the IC50 result in assay [1], in assay [2], in assay [3], in assay [4], in assay [5] and in assay [6] (hek293) was “Not Active” in each case. Also, the IC50 entry in assay [7] is listed as “Not Active”. For the same molecule, the Ki result in assay [2] is reported as “Not Active”.

With `CCOC(=O)C1=C(C)NC(C)=C(C(=O)OC)C1c1cccc(Cl)c1Cl` (stereo not drawn) [FELODIPINE], the IC50 result in assay [1], in assay [2], in assay [3], in assay [4], in assay [5] and in assay [6] (hek293) was “Not Active” throughout. Moreover, the IC50 entry in assay [7] is “Not Active”. The inhibitory constant (Ki) result in assay [2] is “Not Active”.

Regarding `CC(C(=O)O)c1ccc(-c2ccccc2)c(F)c1` (stereo not drawn) [FLURBIPROFEN], the half-maximal inhibitory concentration (IC50) result in assay [1], in assay [2], in assay [3], in assay [4], in assay [5] and in assay [6] (hek293) was “Not Active” throughout. In addition, the IC50 result in assay [7] is given as “Not Active”. Further, in assay [2], the Ki entry is “Not Active”.

As to `Cc1cn[nH]c1` [FOMEPIZOLE], the concentration for half-maximal inhibition (IC50) result in assay [1], in assay [2], in assay [3], in assay [4], in assay [5] and in assay [6] (hek293) was “Not Active” in each case. In addition, the IC50 result in assay [7] is “Not Active”. Besides, the inhibition constant Ki entry in assay [2] was “Not Active”.

Regarding `NC[C@@H]1O[C@H](O[C@H]2[C@@H](O)[C@H](O[C@@H]3[C@@H](O)[C@H](N)C[C@H](N)[C@H]3O[C@H]3O[C@H](CN)[C@@H](O)[C@H](O)[C@H]3N)O[C@@H]2CO)[C@H](N)[C@@H](O)[C@@H]1O` [FRAMYCETIN], the IC50 entry in assay [1], in assay [2], in assay [3], in assay [4], in assay [5] and in assay [6] (hek293) was “Not Active” in each case. The IC50 result in assay [7] is reported as “Not Active”. In assay [2], the Ki result is “Not Active”.

Consider `C[C@H]([C@](O)(Cn1cncn1)c1ccc(F)cc1F)S(C)(=O)=O` [GENACONAZOLE], for which the IC50 result in assay [1], in assay [2], in assay [3], in assay [4], in assay [5] and in assay [6] (hek293) was “Not Active” in each case. The IC50 entry in assay [7] is “Not Active”. Further, the Ki result in assay [2] is “Not Active”.

On to `Cc1c(F)c(N2CCNC(C)C2)cc2c1c(=O)c(C(=O)O)cn2C1CC1` (stereo not drawn) [GREPAFLOXACIN], for which the IC50 entry in assay [1], in assay [2], in assay [3], in assay [4], in assay [5] and in assay [6] (hek293) was “Not Active” in each case. Moreover, in assay [7], the IC50 result was “Not Active”. In assay [2], the Ki result is “Not Active”.

On to `COc1ccccc1OCC(O)CO` (stereo not drawn) [GUAIFENESIN], for which the IC50 entry in assay [1], in assay [2], in assay [3], in assay [4], in assay [5] and in assay [6] (hek293) was “Not Active” in each case. Besides, the 50% inhibitory concentration (IC50) result in assay [7] is on record as “Not Active”. For the same molecule, the Ki entry in assay [2] was “Not Active”.

Turning to `N=C(N)N/N=C/c1c(Cl)cccc1Cl` [GUANABENZ], the IC50 entry is “Not Active” in assay [1]; “Not Active” in assay [2]; “Not Active” in assay [3]; “Not Active” in assay [4]; “Not Active” in assay [5]; 472 nM in assay [6] (read-out: IC50). For the same molecule, in assay [7], the IC50 entry is given as “Not Active”. Further, the Ki result was “Not Active” in assay [2] and 232 nM in assay [6] (read-out: Ki).

For `C[C@]12CCC(=O)C=C1CC[C@@H]1[C@@H]2[C@@H](O)C[C@@]2(C)[C@H]1CC[C@]2(O)C(=O)CO` [HYDROCORTISONE], the IC50 result in assay [1], in assay [2], in assay [3], in assay [4], in assay [5] and in assay [6] (hek293) was “Not Active” in each case. The IC50 result in assay [7] is on record as “Not Active”. In assay [2], the Ki entry is on record as “Not Active”.

On to `C/C=C\c1ccc(O)c(OC)c1` [ISOEUGENOL], for which the IC50 entry in assay [1], in assay [2], in assay [3], in assay [4], in assay [5] and in assay [6] (hek293) was “Not Active” throughout. Also, the IC50 result in assay [7] is reported as “Not Active”. Moreover, the inhibitory constant (Ki) entry in assay [2] is given as “Not Active”.

As to `NC[C@H]1O[C@H](O[C@H]2[C@H](O)[C@@H](O[C@H]3O[C@H](CO)[C@@H](O)[C@H](N)[C@H]3O)[C@H](N)C[C@@H]2N)[C@H](O)[C@@H](O)[C@@H]1O` [KANAMYCIN], the half-inhibitory concentration (IC50) entry in assay [1], in assay [2], in assay [3], in assay [4], in assay [5] and in assay [6] (hek293) was “Not Active” each time. Further, the IC50 entry in assay [7] is “Not Active”. Also, in assay [2], the Ki entry is given as “Not Active”.

`CC[C@H](C)C(=O)O[C@H]1C[C@@H](C)C=C2C=C[C@H](C)[C@H](CC[C@@H]3C[C@@H](O)CC(=O)O3)[C@H]21` [LOVASTATIN]: the IC50 entry in assay [1], in assay [2], in assay [3], in assay [4], in assay [5] and in assay [6] (hek293) was “Not Active” each time. For the same molecule, the IC50 result in assay [7] is “Not Active”. In addition, the inhibitory constant (Ki) entry in assay [2] was “Not Active”.
